Laboratory results as given in US20040171563A1, “Novel use of tyrosine kinase inhibitor” (priority 2001, published 2004).

Tests used:
Islets of Langerhans = assay: cytokine-induced apoptosis in Islets of Langerhans, propidium iodide staining; assay type: cell-based; details: in vitro islet cultures with IL-1β+IFN-γ, propidium iodide staining after 24 h
Protocol: (§1) Ki using AG957 was approximately 1 μM and that of SU4984 was about 10 μM. These inhibitors were added to Islets of Langerhans in in vitro cultures together with the cytokines IL-1β+IFN-γ, and apoptosis was determined by propidium iodide staining after 24 h. It was shown that AG957 and SU 4984 prevented cytokine-induced apoptosis by 60 and 75%, respectively, which further lends support to the view that GTK-inhibition prevents beta-cell destruction in type 1 diabetes. […] It is expected that also human FRK will be inhibited.

GTK = molecular target: T1, GTK (Mus musculus, UniProt Q922K9); assay: in vitro kinase assay for GTK activity; assay type: biochemical; details: for Ki: inhibition of GTK activity in in vitro kinase assays; for inhibition of GTK (qualitative): screening of commercially available tyrosine kinase inhibitors
T1 construct: made in house
Protocol: as §1
Assay for the assessment of GTK (FRK) kinase activity: The basis for screening for specific GTK kinase inhibitors is in vitro kinase assays, utilizing baculovirus produced GTK which is purified by immunoprecipitation using the GTK antibody. Both these reagents are available for the skilled person within this field. Phosphorylation of a synthetic peptide substrate will be studied (Annerén and Welsh, 2000) testing different concentrations of inhibitors, and IC50 values can then be determined for inhibition of GTK kinase activity. The specificity of drug-induced GTK-inhibition is then assessed by comparing the IC50 values with those of other tyrosine kinases.

T1 sequence (Q922K9 whole entry): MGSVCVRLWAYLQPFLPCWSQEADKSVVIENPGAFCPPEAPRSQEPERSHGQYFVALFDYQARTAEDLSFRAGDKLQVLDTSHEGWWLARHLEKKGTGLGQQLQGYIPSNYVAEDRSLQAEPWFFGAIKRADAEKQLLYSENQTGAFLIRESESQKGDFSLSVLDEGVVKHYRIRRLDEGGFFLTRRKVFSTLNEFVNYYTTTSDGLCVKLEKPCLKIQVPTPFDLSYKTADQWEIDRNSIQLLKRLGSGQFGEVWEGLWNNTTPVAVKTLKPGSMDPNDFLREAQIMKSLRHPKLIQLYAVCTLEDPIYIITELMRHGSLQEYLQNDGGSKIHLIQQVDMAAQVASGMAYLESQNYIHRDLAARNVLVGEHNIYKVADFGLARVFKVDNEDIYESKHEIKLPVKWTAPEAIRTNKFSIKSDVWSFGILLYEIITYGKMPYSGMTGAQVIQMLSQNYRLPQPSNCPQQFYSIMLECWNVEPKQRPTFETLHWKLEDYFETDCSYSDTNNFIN

Row | Structure (SMILES) | prevention of cytokine-induced apoptosis (Islets of Langerhans) [%] | Ki (GTK) [µM] | inhibition of GTK (qualitative) (GTK)
1 | COC(=O)c1ccc(NCc2cc(O)ccc2O)cc1 [AG957] | 60 | ~1 | inhibited GTK activity in in vitro kinase assays with a reasonably high degree of specificity
2 | N#C/C(=C\c1ccc(O)c(O)c1)C(=O)O [AG 30] | – | – | inhibit GTK with a fair degree of specificity
3 | O=CN1CCN(c2ccc(/C=C3\C(=O)Nc4ccccc43)cc2)CC1 [SU4984] | 75 | ~10 | inhibited GTK activity in in vitro kinase assays with a reasonably high degree of specificity
